# Test results: ChEMBL document CHEMBL5058564, “EUbOPEN Chemogenomics Library 2 (Incucyte)” (2022)
# Key:
# Format in all cases: toxicity, cell-based
# [1] = test system: HEK-293T; assay: Incucyte cell viability with HEK293T; conditions: human, 10 µM, compound concentration 10 uM
# [2] = test system: Fibroblast; assay: Incucyte cell viability with human fibroblast; conditions: 10 µM, compound concentration 10 uM
# [3] = test system: U2OS; assay: Incucyte cell viability with U2OS; conditions: human, 10 µM, compound concentration 10 uM
# [4] = 6 h, replicate number 1, timepoint 6 hours
# [5] = 6 h, replicate number 2, timepoint 6 hours
# [6] = 12 h, replicate number 1, timepoint 12 hours
# [7] = 12 h, replicate number 2, timepoint 12 hours
# [8] = 18 h, replicate number 1, timepoint 18 hours
# [9] = 18 h, replicate number 2, timepoint 18 hours
# [10] = 24 h, replicate number 1, timepoint 24 hours
# [11] = 24 h, replicate number 2, timepoint 24 hours
# [12] = 0 h, replicate number 2, timepoint 0 hours
# [13] = 0 h, replicate number 1, timepoint 0 hours
# Note: unitless GR value; below 1 slowed growth and below 0 cell loss.
SMILES,"Growth Rate [1, 5]","Growth Rate [1, 6]","Growth Rate [1, 7]","Growth Rate [1, 8]","Growth Rate [1, 9]","Growth Rate [1, 10]","Growth Rate [1, 11]","Growth Rate [2, 12]","Growth Rate [2, 4]","Growth Rate [2, 5]","Growth Rate [2, 6]","Growth Rate [2, 11]","Growth Rate [3, 13]","Growth Rate [3, 4]","Growth Rate [3, 5]","Growth Rate [3, 6]","Growth Rate [3, 7]","Growth Rate [3, 8]","Growth Rate [3, 10]","Growth Rate [1, 12]",other results
CNC(=O)c1nn(C)c2c1C(C)(C)Cc1cnc(Nc3ccc(N4CCN(C)CC4)cc3)nc1-2 [MILCICLIB],-0.72,-0.22,-0.34,-0.12,-0.15,-0.02,-0.01,1,-0.13,-0.21,-0.1,0.33,-0.33,0.35,0.23,0.17,0.29,0.23,0.21,,"Growth Rate [1, 4]: -0.57; Growth Rate [2, 7]: -0.07; Growth Rate [2, 8]: 0.24; Growth Rate [2, 9]: 0.23; Growth Rate [2, 10]: 0.34; Growth Rate [3, 9]: 0.38; Growth Rate [3, 11]: 0.25"
Nc1nc(CC(=O)Nc2ccc(CCNC[C@H](O)c3ccccc3)cc2)cs1 [MIRABEGRON],,,,,,,,0.45,0.68,0.56,0.9,,0.18,,,0.95,,0.54,,0.62,"Growth Rate [1, 13]: 0.8; Growth Rate [2, 13]: 0.35"
CCS(=O)(=O)Nc1ccc(Oc2ccc(F)cc2F)c(-c2cn(C)c(=O)c3[nH]ccc23)c1 [MIVEBRESIB],,,0.78,0.75,0.41,0.4,0.28,,-0.16,0.52,,,,,0.85,,,,,,"Growth Rate [3, 12]: -0.35; Growth Rate [3, 11]: 0.95"
OC[C@H]1O[C@@H](n2cnc3c(NC4CCCC4)ncnc32)[C@H](O)[C@@H]1O [N6-CYCLOPENTYLADENOSINE],0.12,0.81,0.6,0.75,0.65,0.73,0.66,-0.09,,,,0.92,,0.36,0.74,0.69,0.94,0.53,0.71,-0.14,"Growth Rate [1, 13]: -0.12; Growth Rate [1, 4]: 0.92; Growth Rate [2, 13]: 0.37; Growth Rate [3, 9]: 0.93; Growth Rate [3, 11]: 1"
CN(C(=O)/C=C/c1ccoc1)[C@@H]1CC[C@@]2(O)[C@H]3Cc4ccc(O)c5c4[C@@]2(CCN3CC2CC2)[C@H]1O5 [NALFURAFINE],,,0.91,,,,0.91,0.55,,,,,0.56,0.82,,,1,0.68,0.77,0.49,"Growth Rate [1, 13]: 0.87; Growth Rate [3, 12]: -0.09; Growth Rate [3, 9]: 0.88"
Cl.O=C1CC[C@@]2(O)[C@H]3Cc4ccc(O)c5c4[C@@]2(CCN3CC2CC2)[C@H]1O5 [NALTREXONE HYDROCHLORIDE],0.84,,,,,,,0.63,0.38,,,,0.86,-0.02,0.81,0.39,0.91,0.67,0.83,0.83,"Growth Rate [2, 13]: 0.67; Growth Rate [2, 10]: 0.6; Growth Rate [3, 12]: -1"
Cc1ccccc1-c1cc(N2CCN(C)CC2)ncc1N(C)C(=O)C(C)(C)c1cc(C(F)(F)F)cc(C(F)(F)F)c1 [NETUPITANT],,0.84,,0.72,0.92,0.5,0.86,0.68,0.24,,0.63,0.71,-0.52,,,,,,,0.7,"Growth Rate [1, 13]: 0.83; Growth Rate [2, 13]: -0.23; Growth Rate [2, 7]: 0.31; Growth Rate [2, 8]: 0.73; Growth Rate [2, 9]: 0.71"
COC(=O)Nc1nc2ccc(C(=O)c3cccs3)cc2[nH]1 [NOCODAZOLE],-0.49,-0.24,-0.32,-0.22,-0.34,-0.22,-0.26,,-0.86,-0.39,-0.6,0.08,,0.3,0.24,0.1,-0.16,0.03,-0.06,,"Growth Rate [1, 4]: -0.46; Growth Rate [2, 7]: -0.2; Growth Rate [2, 8]: -0.54; Growth Rate [2, 9]: -0.04; Growth Rate [2, 10]: -0.33; Growth Rate [3, 9]: -0.36; Growth Rate [3, 11]: -0.35"
